In publication PMC9927415, “Tyrosine Kinase Inhibitors Display Potent Activity against Cryptosporidium parvum” (Microbiology Spectrum, 2022):

What was measured:
[1] = target: T1, panel of 203 kinases (Homo sapiens, UniProt Q15303); assay: KINOMEscan competitive binding, whole panel; conditions: 10 µM, n=1; kinase ERBB4; read-out: Percent inhibition ERBB4
T1 construct: purchased DiscoverX (KINOMEscan)
How it was run: (§1)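 T7 phage-fused kinases; compound displaces immobilized ATP-site probe ligand; bead-bound kinase quantified; % inhibition reported.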

[2] = target: T2, panel of 203 kinases (Homo sapiens, UniProt P54762); assay: KINOMEscan competitive binding, whole panel; conditions: 10 µM, n=1; kinase EPHB1; read-out: Percent inhibition EPHB1
T2 construct: purchased DiscoverX (KINOMEscan)
T2 sequence (P54762 18-984): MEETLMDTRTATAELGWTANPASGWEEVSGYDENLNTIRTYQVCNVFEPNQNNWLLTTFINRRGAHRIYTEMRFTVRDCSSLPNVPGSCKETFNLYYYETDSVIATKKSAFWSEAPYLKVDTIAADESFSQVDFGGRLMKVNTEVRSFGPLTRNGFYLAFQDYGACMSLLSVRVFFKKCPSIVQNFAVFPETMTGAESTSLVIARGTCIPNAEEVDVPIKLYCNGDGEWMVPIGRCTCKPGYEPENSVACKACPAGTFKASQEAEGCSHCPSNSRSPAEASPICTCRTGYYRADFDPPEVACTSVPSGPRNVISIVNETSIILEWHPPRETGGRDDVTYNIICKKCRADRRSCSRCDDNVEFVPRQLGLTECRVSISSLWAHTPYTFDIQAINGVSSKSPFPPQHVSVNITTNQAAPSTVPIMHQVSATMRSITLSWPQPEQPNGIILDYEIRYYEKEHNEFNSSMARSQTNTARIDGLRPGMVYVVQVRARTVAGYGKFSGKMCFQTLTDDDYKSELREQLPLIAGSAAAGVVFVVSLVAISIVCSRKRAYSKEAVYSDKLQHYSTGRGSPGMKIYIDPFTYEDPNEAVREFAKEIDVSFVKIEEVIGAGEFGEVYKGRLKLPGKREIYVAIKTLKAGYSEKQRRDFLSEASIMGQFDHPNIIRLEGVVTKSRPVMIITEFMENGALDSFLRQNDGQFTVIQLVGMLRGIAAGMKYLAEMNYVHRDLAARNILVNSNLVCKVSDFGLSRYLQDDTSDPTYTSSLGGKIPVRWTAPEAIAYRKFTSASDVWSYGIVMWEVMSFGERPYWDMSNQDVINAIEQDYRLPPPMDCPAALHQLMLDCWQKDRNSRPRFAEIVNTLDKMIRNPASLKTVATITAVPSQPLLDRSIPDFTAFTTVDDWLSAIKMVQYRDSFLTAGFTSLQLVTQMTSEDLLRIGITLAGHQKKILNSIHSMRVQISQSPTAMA
How it was run: as §1

[3] = target: T3, panel of 203 kinases (Homo sapiens, UniProt P51813); assay: KINOMEscan competitive binding, whole panel; conditions: 10 µM, n=1; kinase BMX; read-out: Percent inhibition BMX
T3 construct: purchased DiscoverX (KINOMEscan)
T3 sequence (P51813 1-675): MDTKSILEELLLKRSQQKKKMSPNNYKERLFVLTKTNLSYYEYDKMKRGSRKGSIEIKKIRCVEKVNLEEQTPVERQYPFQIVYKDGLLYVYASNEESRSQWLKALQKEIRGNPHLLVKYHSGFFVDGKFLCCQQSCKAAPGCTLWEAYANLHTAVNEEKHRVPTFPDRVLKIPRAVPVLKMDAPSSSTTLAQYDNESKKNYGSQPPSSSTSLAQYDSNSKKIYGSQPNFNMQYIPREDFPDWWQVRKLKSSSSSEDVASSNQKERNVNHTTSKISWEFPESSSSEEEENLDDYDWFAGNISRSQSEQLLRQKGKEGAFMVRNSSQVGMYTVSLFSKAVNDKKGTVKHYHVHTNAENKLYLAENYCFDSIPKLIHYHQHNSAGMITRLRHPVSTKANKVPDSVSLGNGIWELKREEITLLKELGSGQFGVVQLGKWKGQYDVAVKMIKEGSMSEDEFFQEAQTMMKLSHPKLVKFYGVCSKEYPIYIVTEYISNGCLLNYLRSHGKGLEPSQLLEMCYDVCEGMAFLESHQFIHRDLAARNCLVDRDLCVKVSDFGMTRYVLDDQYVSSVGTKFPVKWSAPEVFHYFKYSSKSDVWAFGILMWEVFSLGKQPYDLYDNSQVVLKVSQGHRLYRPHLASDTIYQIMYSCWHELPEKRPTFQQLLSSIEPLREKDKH
How it was run: as §1

[4] = target: T4, PKAC-alpha (Homo sapiens, UniProt P17612); assay: KINOMEscan competitive binding; conditions: n=1, read-out: Percent inhibition, PKAC-alpha
T4 construct: purchased DiscoverX (KINOMEscan)

[5] = target: T5, PRKD2 (Homo sapiens, UniProt Q9BZL6); assay: KINOMEscan competitive binding; conditions: n=1, read-out: Percent inhibition, PRKD2
T5 construct: purchased DiscoverX (KINOMEscan)
T5 sequence (Q9BZL6 1-878): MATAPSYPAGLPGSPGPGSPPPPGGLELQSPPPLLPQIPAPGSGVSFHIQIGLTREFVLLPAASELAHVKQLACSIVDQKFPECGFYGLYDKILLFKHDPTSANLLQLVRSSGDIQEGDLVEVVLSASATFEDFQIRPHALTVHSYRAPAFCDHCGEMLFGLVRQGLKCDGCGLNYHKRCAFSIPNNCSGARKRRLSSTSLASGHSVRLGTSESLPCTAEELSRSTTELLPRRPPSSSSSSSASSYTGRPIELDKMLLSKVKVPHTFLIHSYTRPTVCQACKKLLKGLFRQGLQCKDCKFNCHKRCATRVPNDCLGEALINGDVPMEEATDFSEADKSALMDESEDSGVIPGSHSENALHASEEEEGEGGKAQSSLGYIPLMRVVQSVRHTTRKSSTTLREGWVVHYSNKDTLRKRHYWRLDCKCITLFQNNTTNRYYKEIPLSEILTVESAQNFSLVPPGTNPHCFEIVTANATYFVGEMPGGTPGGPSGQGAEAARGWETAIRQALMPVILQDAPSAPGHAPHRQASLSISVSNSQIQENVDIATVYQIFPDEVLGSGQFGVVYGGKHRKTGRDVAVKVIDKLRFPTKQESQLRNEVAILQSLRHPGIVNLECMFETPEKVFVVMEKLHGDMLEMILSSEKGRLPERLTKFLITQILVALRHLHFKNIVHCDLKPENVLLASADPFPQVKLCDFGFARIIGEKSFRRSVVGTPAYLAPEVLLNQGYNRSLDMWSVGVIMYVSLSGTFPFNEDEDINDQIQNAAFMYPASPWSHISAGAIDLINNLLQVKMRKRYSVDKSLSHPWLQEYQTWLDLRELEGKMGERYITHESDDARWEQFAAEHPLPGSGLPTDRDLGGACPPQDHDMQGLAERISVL

T1 sequence (Q15303 26-1308): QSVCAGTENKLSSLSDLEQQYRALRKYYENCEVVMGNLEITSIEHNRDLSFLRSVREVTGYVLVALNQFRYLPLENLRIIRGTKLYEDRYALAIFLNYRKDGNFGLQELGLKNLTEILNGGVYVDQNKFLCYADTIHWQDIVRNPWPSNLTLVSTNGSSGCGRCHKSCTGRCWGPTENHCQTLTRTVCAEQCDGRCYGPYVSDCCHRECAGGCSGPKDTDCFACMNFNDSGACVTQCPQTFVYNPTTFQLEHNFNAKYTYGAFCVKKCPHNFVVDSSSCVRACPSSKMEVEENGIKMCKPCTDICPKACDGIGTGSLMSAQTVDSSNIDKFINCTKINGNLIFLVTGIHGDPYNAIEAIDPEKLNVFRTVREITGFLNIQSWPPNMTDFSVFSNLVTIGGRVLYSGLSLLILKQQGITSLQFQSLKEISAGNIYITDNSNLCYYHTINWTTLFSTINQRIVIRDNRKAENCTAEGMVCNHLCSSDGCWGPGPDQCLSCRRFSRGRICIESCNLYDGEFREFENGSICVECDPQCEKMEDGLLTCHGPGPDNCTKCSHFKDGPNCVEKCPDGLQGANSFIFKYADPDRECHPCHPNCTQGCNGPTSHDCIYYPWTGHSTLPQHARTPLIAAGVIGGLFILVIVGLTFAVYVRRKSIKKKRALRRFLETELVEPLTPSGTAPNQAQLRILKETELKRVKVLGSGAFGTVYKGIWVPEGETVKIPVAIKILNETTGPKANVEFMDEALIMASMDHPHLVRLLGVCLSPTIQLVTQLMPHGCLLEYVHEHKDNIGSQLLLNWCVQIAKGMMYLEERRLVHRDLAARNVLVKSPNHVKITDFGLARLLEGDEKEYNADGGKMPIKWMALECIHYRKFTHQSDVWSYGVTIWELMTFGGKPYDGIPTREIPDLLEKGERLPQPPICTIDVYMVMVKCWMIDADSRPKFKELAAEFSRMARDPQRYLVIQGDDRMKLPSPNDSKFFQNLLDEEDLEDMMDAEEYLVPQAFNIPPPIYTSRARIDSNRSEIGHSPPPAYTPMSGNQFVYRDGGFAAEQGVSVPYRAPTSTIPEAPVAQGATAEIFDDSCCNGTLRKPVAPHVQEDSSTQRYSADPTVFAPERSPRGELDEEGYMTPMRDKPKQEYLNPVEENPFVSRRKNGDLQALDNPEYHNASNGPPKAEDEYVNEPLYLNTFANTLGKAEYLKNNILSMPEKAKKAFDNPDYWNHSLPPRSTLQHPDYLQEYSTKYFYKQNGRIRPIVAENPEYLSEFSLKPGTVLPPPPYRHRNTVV

SMILES | inhibition at 10 µM [1] [%] | inhibition at 10 µM [2] [%] | inhibition at 10 µM [3] [%] | inhibition at 10 µM [4] [%] | inhibition at 10 µM [5] [%]
CN1CCN(c2ccc(Nc3nccc(-c4cnn5ncccc45)n3)cc2C#N)CC1 [Compound 1] | 0 | 99.3 | 0 | 0 | 0
COc1ccc(Nc2nccc(-c3cnn4ncccc34)n2)cc1 [Compound 2] | 0 | 99.8 | 0 | 0 | 75.3
Cc1ccc(O)cc1Nc1ccnc(Nc2cccc(C(N)=O)c2)n1 [Compound 3] | 90.9 | 100 |  | 0 | 87.1
Cc1ccc(O)cc1N(C)c1ccnc(Nc2cccc(S(N)(=O)=O)c2)n1 [Compound 4] | 87.3 | 100 | 100 | 68.9 | 96.6
Fc1cccc(COc2ccc(Nc3ncnc4c3CN(CCN3CCOCC3)CC4)cc2Cl)c1 [Compound 6] | 0 | 0 | 0 | 0 | 0
COc1cc(Nc2nccc(-c3sc(N)nc3-c3cccc(NC(=O)c4c(F)cccc4F)c3)n2)cc(OC)c1OC [Compound 7] | 100 | 100 | 100 | 0 | 100
C[C@@H](Oc1cc(-c2cnc3ccccn23)sc1C(N)=O)c1ccccc1Cl [Compound 8] | 0 | 0 | 0 | 0 | 0
c1ccc(COc2cccc(-c3ccnc4[nH]ccc34)c2)cc1 [Compound 9] | 0 | 0 | 0 | 0 | 0
Clc1ccc(Nc2ncc(-c3ccccc3)s2)cc1 [Compound 10] | 0 | 0 | 0 | 0 | 0
Nc1ncc2c(-c3ccncc3)c[nH]c2n1 [Compound 11] | 0 | 81.9 | 0 | 0 | 0
